According to patent US20240368096A1 (Enanta Pharmaceuticals, Inc., priority 2022, published 2024):

system: HBV; test: HBV infection in HepG2-NTCP cells (HBeAg AlphaLISA in supernatants); assay type: cell-based; conditions: Hepatitis B virus, 192 h; HBV infection of HepG2-NTCP cells; HBeAg in supernatants at day 8 post infection; read-out: Cellular EC50
Procedure: HepG2-NTCP A3 cells were maintained in DMEM media supplemented with GlutaMAX™ 10% fetal bovine serum, 1% penicillin/streptomycin, and 5 μg/mL puromycin at 37° C. in a humidified atmosphere with 5% CO2 in a collagen-coated tissue culture flask.
HepG2-NTCP cells were seeded in 384 well plate containing 16,000 cells/well two days prior to the infection. On the day of infection, compounds were 3-fold serially diluted in DMSO and pre-incubated with HepG2-NTCP cells for two hours before purified HBV addition. HBV infection was carried out at 2000 GE/cell with 4% PEG, and the final concentration of DMSO is 0.5%. On day one post infection, HBV-containing media was aspirated, cells were washed once with PBS and then maintained in 2.5% DMSO containing media for the remainder of the assay.
Supernatants from infected HepG2-NTCP cells were collected at day 8 post infection, and the amount of viral antigen HBeAg was measured by HBeAg AlphaLISA detection kit (PerkinElmer) following the manufacturer's recommended protocol. Irrespective of readout, compound concentrations that reduce viral product accumulation in supernatants by […] relative to DMSO controls (EC50) are reported. EC50 ranges are as follows: A<0.1 μM; B 0.1-1 μM; C>1 μM.

Compound | EC50 [nM]
CN1[C@H](C2CCCCO2)CN(c2ccccc2)c2cc(Cl)c(-c3ccc(F)c(C(=O)O)c3)cc2S1(=O)=O (stereo partly drawn) [Example 104, 5-((3S)-7-chloro-2-methyl-1,1-dioxido-5-phenyl-3-(tetrahydro-2H-pyran-2-yl)-2,3,4,5-tetrahydrobenzo[f][1,2,5]thiadiazepin-8-yl)-2-fluorobenzoic acid] | 100 to 1000
CN1[C@H](C2CCOCC2)CN(c2ccccc2)c2cc(Cl)c(-c3ccc(F)c(C(=O)O)c3)cc2S1(=O)=O [Example 105, (R)-5-(7-chloro-2-methyl-1,1-dioxido-5-phenyl-3-(tetrahydro-2H-pyran-4-yl)-2,3,4,5-tetrahydrobenzo[f][1,2,5]thiadiazepin-8-yl)-2-fluorobenzoic acid] | 100 to 1000
CN1[C@H](C2COC2)CN(c2ccccc2)c2cc(Cl)c(-c3ccc(F)c(C(=O)O)c3)cc2S1(=O)=O [Example 106] | > 1000
CN1[C@H](CBr)CN(c2ccccc2)c2cc(Cl)c(-c3ccc(F)c(C(=O)O)c3)cc2S1(=O)=O [Example 107, (S)-5-(3-(bromomethyl)-7-chloro-2-methyl-1,1-dioxido-5-phenyl-2,3,4,5-tetrahydrobenzo[f][1,2,5]thiadiazepin-8-yl)-2-fluorobenzoic acid] | > 1000
CN1[C@H](CN2CCCCC2)CN(c2ccccc2)c2cc(Cl)c(-c3ccc(F)c(C(=O)O)c3)cc2S1(=O)=O [Example 108, (R)-5-(7-chloro-2-methyl-1,1-dioxido-5-phenyl-3-(piperidin-1-ylmethyl)-2,3,4,5-tetrahydrobenzo[f][1,2,5]thiadiazepin-8-yl)-2-fluorobenzoic acid] | > 1000
CN1[C@H](CN2CCOCC2)CN(c2ccccc2)c2cc(Cl)c(-c3ccc(F)c(C(=O)O)c3)cc2S1(=O)=O [Example 109] | > 1000
CN1[C@H](CN2CCCC2)CN(c2ccccc2)c2cc(Cl)c(-c3ccc(F)c(C(=O)O)c3)cc2S1(=O)=O [Example 110] | > 1000
CN1[C@H](CN2CCC(F)(F)C2)CN(c2ccccc2)c2cc(Cl)c(-c3ccc(F)c(C(=O)O)c3)cc2S1(=O)=O [Example 111] | > 1000
CN1[C@H](CN2CCCC(F)(F)C2)CN(c2ccccc2)c2cc(Cl)c(-c3ccc(F)c(C(=O)O)c3)cc2S1(=O)=O [Example 112] | > 1000
CN1[C@H](CN2CCC(F)(F)CC2)CN(c2ccccc2)c2cc(Cl)c(-c3ccc(F)c(C(=O)O)c3)cc2S1(=O)=O [Example 113] | > 1000
CN1[C@H](CNC(C)(C)C)CN(c2ccccc2)c2cc(Cl)c(-c3ccc(F)c(C(=O)O)c3)cc2S1(=O)=O [Example 114] | > 1000
CN1[C@H](CN2CCCC2=O)CN(c2ccccc2)c2cc(Cl)c(-c3ccc(F)c(C(=O)O)c3)cc2S1(=O)=O [Example 115] | > 1000
CN1[C@H](C2CCCCC2)CN(c2ccccc2)c2cc(Cl)c(-c3cc(Cl)c(C(=O)O)s3)cc2S1(=O)=O [Example 117] | < 100
COc1cc(-c2cc3c(cc2Cl)N(c2ccccc2)C[C@@H](C2CCCCC2)N(C)S3(=O)=O)sc1C(=O)O [Example 118] | < 100
CN1[C@H](C2CCCCC2)CN(c2ccccc2)c2cc(Cl)c(-c3sc(C(=O)O)cc3F)cc2S1(=O)=O [Example 119] | < 100
CC(C)[C@@H]1CN(c2ccccc2)c2cc(Cl)c(-c3cc(F)c(C(=O)O)s3)cc2S(=O)(=O)N1C [Example 120] | < 100
CN1[C@H](C2CCC2)CN(c2ccccc2)c2cc(Cl)c(-c3cc(F)c(C(=O)O)s3)cc2S1(=O)=O [Example 121] | < 100
Cc1sc(-c2cc3c(cc2Cl)N(c2ccccc2)C[C@@H](C2CCCCC2)N(C)S3(=O)=O)cc1C(=O)O [Example 122] | < 100

Compound | EC50 [nM]
CN1[C@H](C2CCCCC2)CN(c2ccccc2)c2cc(Cl)c(-c3cc(C(=O)O)c(Cl)s3)cc2S1(=O)=O [Example 123] | < 100
Cc1cc(-c2cc3c(cc2Cl)N(c2ccccc2)C[C@@H](C2CCCCC2)N(C)S3(=O)=O)oc1C(=O)O [Example 124] | < 100
Cc1sc(-c2cc3c(cc2Cl)N(c2ccccc2)C[C@@H](C2CCCCC2)N(C)S3(=O)=O)nc1C(=O)O [Example 125] | 100 to 1000
CN1[C@H](C2CCCCC2)CN(c2ccccc2)c2cc(Cl)c(-c3cc(C(=O)O)cs3)cc2S1(=O)=O [Example 129, (R)-5-(7-chloro-3-cyclohexyl-2-methyl-1,1-dioxido-5-phenyl-2,3,4,5-tetrahydrobenzo[f][1,2,5]thiadiazepin-8-yl)thiophene-3-carboxylic acid] | 100 to 1000
CN1[C@H](C2CCCCC2)CN(c2ccccc2)c2cc(Cl)c(-c3ccc(C(=O)O)s3)cc2S1(=O)=O [Example 130, (R)-5-(7-chloro-3-cyclohexyl-2-methyl-1,1-dioxido-5-phenyl-2,3,4,5-tetrahydrobenzo[f][1,2,5]thiadiazepin-8-yl)thiophene-2-carboxylic acid] | < 100
CN1[C@H](C2CCCCC2)CN(c2ccccc2)c2cc(Cl)c(-c3nc(C(=O)O)co3)cc2S1(=O)=O [Example 131, (R)-2-(7-chloro-3-cyclohexyl-2-methyl-1,1-dioxido-5-phenyl-2,3,4,5-tetrahydrobenzo[f][1,2,5]thiadiazepin-8-yl)oxazole-4-carboxylic acid] | 100 to 1000
CN1[C@H](C2CCCCC2)CN(c2ccccc2)c2cc(Cl)c(-c3ncc(C(=O)O)o3)cc2S1(=O)=O [Example 132, (R)-2-(7-chloro-3-cyclohexyl-2-methyl-1,1-dioxido-5-phenyl-2,3,4,5-tetrahydrobenzo[f][1,2,5]thiadiazepin-8-yl)oxazole-5-carboxylic acid] | 100 to 1000
CN1[C@H](C2CCCCC2)CN(c2ccccc2)c2cc(Cl)c(-c3cc(C(=O)O)nn3C)cc2S1(=O)=O [Example 133, (R)-5-(7-chloro-3-cyclohexyl-2-methyl-1,1-dioxido-5-phenyl-2,3,4,5-tetrahydrobenzo[f][1,2,5]thiadiazepin-8-yl)-1-methyl-1H-pyrazole-3-carboxylic acid] | 100 to 1000
CN1[C@H](C2CCCCC2)CN(c2ccccc2)c2cc(Cl)c(-c3cc(C(=O)O)n(C)n3)cc2S1(=O)=O [Example 134] | < 100
CN1[C@H](C2CCCCC2)CN(c2ccccc2)c2cc(Cl)c(-c3cc(C(=O)O)[nH]n3)cc2S1(=O)=O [Example 135, (R)-3-(7-chloro-3-cyclohexyl-2-methyl-1,1-dioxido-5-phenyl-2,3,4,5-tetrahydrobenzo[f][1,2,5]thiadiazepin-8-yl)-1H-pyrazole-5-carboxylic acid] | 100 to 1000
CN1[C@H](C2CCCCC2)CN(c2ccccc2)c2cc(Cl)c(-c3cncc(C(=O)O)c3)cc2S1(=O)=O [Example 136, (R)-5-(7-chloro-3-cyclohexyl-2-methyl-1,1-dioxido-5-phenyl-2,3,4,5-tetrahydrobenzo[f][1,2,5]thiadiazepin-8-yl)nicotinic acid] | > 1000
CN1[C@H](C2CCCCC2)CN(c2ccccc2)c2cc(Cl)c(-c3ccnc(C(=O)O)c3)cc2S1(=O)=O [Example 137, (R)-4-(7-chloro-3-cyclohexyl-2-methyl-1,1-dioxido-5-phenyl-2,3,4,5-tetrahydrobenzo[f][1,2,5]thiadiazepin-8-yl)picolinic acid] | 100 to 1000
CN1[C@H](C2CCCCC2)CN(c2ccccc2)c2cc(Cl)c(-c3cccc(C(=O)O)n3)cc2S1(=O)=O [Example 138, (R)-6-(7-chloro-3-cyclohexyl-2-methyl-1,1-dioxido-5-phenyl-2,3,4,5-tetrahydrobenzo[f][1,2,5]thiadiazepin-8-yl)picolinic acid] | 100 to 1000
CN1[C@H](C2CCCCC2)CN(c2ccccc2)c2cc(Cl)c(-c3cc(C(=O)O)ccn3)cc2S1(=O)=O [Example 139, (R)-2-(7-chloro-3-cyclohexyl-2-methyl-1,1-dioxido-5-phenyl-2,3,4,5-tetrahydrobenzo[f][1,2,5]thiadiazepin-8-yl)isonicotinic acid] | 100 to 1000
CN1[C@H](C2CCCCC2)CN(c2ccccc2)c2cc(Cl)c(-c3cc(C(=O)O)ncn3)cc2S1(=O)=O [Example 140, (R)-6-(7-chloro-3-cyclohexyl-2-methyl-1,1-dioxido-5-phenyl-2,3,4,5-tetrahydrobenzo[f][1,2,5]thiadiazepin-8-yl)pyrimidine-4-carboxylic acid] | 100 to 1000
CN1[C@H](C2CCCCC2)CN(c2ccccc2)c2cc(Cl)c(-c3ccc(F)c(C(=O)O)n3)cc2S1(=O)=O [Example 141, (R)-6-(7-chloro-3-cyclohexyl-2-methyl-1,1-dioxido-5-phenyl-2,3,4,5-tetrahydrobenzo[f][1,2,5]thiadiazepin-8-yl)-3-fluoropicolinic acid] | 100 to 1000
CN1[C@H](C2CCCCC2)CN(c2ccccc2)c2cc(Cl)c(-c3cc(C(=O)O)cc(C(F)(F)F)c3)cc2S1(=O)=O [Example 142, (R)-3-(7-chloro-3-cyclohexyl-2-methyl-1,1-dioxido-5-phenyl-2,3,4,5-tetrahydrobenzo[f][1,2,5]thiadiazepin-8-yl)-5-(trifluoromethyl)benzoic acid] | 100 to 1000
CN1[C@H](C2CCCCC2)CN(c2ccccc2)c2cc(Cl)c(-c3ccc(C(F)(F)F)c(C(=O)O)c3)cc2S1(=O)=O [Example 143, (R)-5-(7-chloro-3-cyclohexyl-2-methyl-1,1-dioxido-5-phenyl-2,3,4,5-tetrahydrobenzo[f][1,2,5]thiadiazepin-8-yl)-2-(trifluoromethyl)benzoic acid] | 100 to 1000
